Usually IC50 stands for the concentration at which inhibition is half-maximal.

SMILES strings stand for the structures. Where two headings read alike, the source gives them in different places. Starred links: 1 amine or outer side, 2 acyl side, 3 side chain; linkers in the order of their positions; H or OH if unused. Positions of bridges follow the written chain, without caps; N, C: chain ends. Non-standard residues stand in square brackets, D forms with d. Residues, ends and D or L forms follow the SMILES beside them. Groups on a side chain read outwards from the residue. *: point of attachment. Trp(1-CH2CO2Me) = COC(=O)Cn1cc(C[C@H](N)C(=O)O)c2ccccc21; Trp(1-CH2COOH) = N[C@@H](Cc1cn(CC(=O)O)c2ccccc12)C(=O)O; Acridine9carbonyl = O=C(c1c2ccccc2nc2ccccc12)*; X73 = FC(F)(F)c1cc(NC(=S)*)cc(C(F)(F)F)c1; NH(2-CF3-phenyl) = FC(F)(F)c1ccccc1N*; X1 = S=C(Nc1ccc2c(c1)Cc1ccccc1-2)*; Hyp = O=C(O)[C@@H]1C[C@@H](O)CN1; X32 = c1ccc2c(c1)Cc1cc(N*)ccc1-2; X34 = O=C(c1c2ccccc2cc2ccccc12)*; X47 = O=C(c1cn2c(n1)sc1ccccc12)*; X43 = S=C(Nc1ccccc1Oc1ccccc1)*; NH(3-MeOPh) = COc1cccc(N*)c1; NMeNle = CCCC[C@H](NC)C(=O)O; X92 = FC(F)(F)c1cc(Cl)ccc1N*; NMeA = CN[C@@H](C)C(=O)O; Dab = NCC[C@H](N)C(=O)O; X39 = CCCCOc1ccc(N*)cc1; Dap = NC[C@H](N)C(=O)O; CO = O=C([*:1])[*:2]

The source of these data is patent US20220389061A1, “IMMUNOMODULATORS” (priority 2019, published 2022).

The target of this test is T1, PD-1/PD-L1 (Homo sapiens, UniProt Q9NZQ7).
T1 construct: TVMV protease site linker (C); made in house; host or cells: HEK293T cells
The test is described as follows: PD-1/PD-L1 Homogenous Time-Resolved Fluorescence (HTRF) binding assay. The essentials: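 Compounds preincubated 15 min with PD-L1-His (10 nM final), then PD-1-Ig (20 nM final) added for 15 min in dPBS with 0.1% BSA, 0.05% Tween-20. Detection by Eu-cryptate anti-Ig (1 nM) and APC anti-His (20 nM) HTRF.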
For orientation: TR-FRET usually uses a lanthanide donor and a delayed reading to cut background.

Setting [1] is: PD-L1-His 10 nM pre-incubated with inhibitor, PD-1-Ig 20 nM, read-out: HTRF IC50.

T1 sequence (Q9NZQ7 18-239): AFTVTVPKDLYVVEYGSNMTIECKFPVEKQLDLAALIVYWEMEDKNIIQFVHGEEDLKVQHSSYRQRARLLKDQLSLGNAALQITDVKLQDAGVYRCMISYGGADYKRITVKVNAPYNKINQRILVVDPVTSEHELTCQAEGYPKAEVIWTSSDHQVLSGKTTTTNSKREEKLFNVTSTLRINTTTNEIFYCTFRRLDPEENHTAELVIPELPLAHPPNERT

With `CCCC[C@H]1C(=O)N(C)[C@@H](CCCC)C(=O)N[C@@H](CC(C)C)C(=O)N[C@H](C(=O)NCC(N)=O)CSCC(=O)N[C@@H](Cc2ccc(O)cc2)C(=O)N(C)[C@@H](C)C(=O)N[C@@H](CC(N)=O)C(=O)N2CCC[C@H]2C(=O)N[C@@H](CNC(=S)Nc2ccccc2Oc2ccccc2)C(=O)N[C@@H](CC(C)C)C(=O)N2C[C@H](O)C[C@H]2C(=O)N[C@@H](Cc2c[nH]c3ccccc23)C(=O)N[C@@H](CCN)C(=O)N[C@@H](Cc2cn(CC(=O)O)c3ccccc23)C(=O)N1C` [Example 1135] ({CH2CO}-Y[NMeA]NP[Dap](X43)L[Hyp]W[Dab][Trp(1-CH2COOH)][NMeNle][NMeNle]LCG-NH2; thioether N-14), the IC50 under setting [1] was 4.9 nM.
As to `CCCC[C@H]1C(=O)N(C)[C@@H](CCCC)C(=O)N[C@@H](CC(C)C)C(=O)N[C@H](C(=O)NCC(N)=O)CSCC(=O)N[C@@H](Cc2ccc(O)cc2)C(=O)N(C)[C@@H](C)C(=O)N[C@@H](CC(N)=O)C(=O)N2CCC[C@H]2C(=O)N[C@@H](CNC(=S)Nc2cc(C(F)(F)F)cc(C(F)(F)F)c2)C(=O)N[C@@H](CC(C)C)C(=O)N2C[C@H](O)C[C@H]2C(=O)N[C@@H](Cc2c[nH]c3ccccc23)C(=O)N[C@@H](CCN)C(=O)N[C@@H](Cc2cn(CC(=O)O)c3ccccc23)C(=O)N1C` [Example 1136] ({CH2CO}-Y[NMeA]NP[Dap](X73)L[Hyp]W[Dab][Trp(1-CH2COOH)][NMeNle][NMeNle]LCG-NH2; thioether N-14), the IC50 under setting [1] was 14 nM.
Regarding `CCCC[C@H]1C(=O)N(C)[C@@H](CCCC)C(=O)N[C@@H](CC(C)C)C(=O)N[C@H](C(=O)NCC(N)=O)CSCC(=O)N[C@@H](Cc2ccc(O)cc2)C(=O)N(C)[C@@H](C)C(=O)N[C@@H](CC(N)=O)C(=O)N2CCC[C@H]2C(=O)N[C@@H](CNC(=O)Nc2ccccc2C(F)(F)F)C(=O)N[C@@H](CC(C)C)C(=O)N2C[C@H](O)C[C@H]2C(=O)N[C@@H](Cc2c[nH]c3ccccc23)C(=O)N[C@@H](CCNC(=O)Nc2ccccc2C(F)(F)F)C(=O)N[C@@H](Cc2cn(CC(=O)O)c3ccccc23)C(=O)N1C` [Example 1137] ({CH2CO}-Y[NMeA]NP[Dap]([CO-NH(2-CF3-phenyl)])L[Hyp]W[Dab]([CO-NH(2-CF3-phenyl)])[Trp(1-CH2COOH)][NMeNle][NMeNle]LCG-NH2; thioether N-14), the IC50 under setting [1] amounted to 20 nM.
As to `CCCC[C@H]1C(=O)N(C)[C@@H](CCCC)C(=O)N[C@@H](CC(C)C)C(=O)N[C@H](C(=O)NCC(N)=O)CSCC(=O)N[C@@H](Cc2ccc(O)cc2)C(=O)N(C)[C@@H](C)C(=O)N[C@@H](CC(N)=O)C(=O)N2CCC[C@H]2C(=O)N[C@@H](CNC(=O)Nc2ccc(Cl)cc2C(F)(F)F)C(=O)N[C@@H](CC(C)C)C(=O)N2C[C@H](O)C[C@H]2C(=O)N[C@@H](Cc2c[nH]c3ccccc23)C(=O)N[C@@H](CCNC(=O)Nc2ccc(Cl)cc2C(F)(F)F)C(=O)N[C@@H](Cc2cn(CC(=O)O)c3ccccc23)C(=O)N1C` [Example 1138] ({CH2CO}-Y[NMeA]NP[Dap]([CO-X92])L[Hyp]W[Dab]([CO-X92])[Trp(1-CH2COOH)][NMeNle][NMeNle]LCG-NH2; thioether N-14), the IC50 under setting [1] came out at 9.7 nM.
In the case of `CCCCOc1ccc(NC(=O)NC[C@@H]2NC(=O)[C@@H]3CCCN3C(=O)[C@H](CC(N)=O)NC(=O)[C@H](C)N(C)C(=O)[C@H](Cc3ccc(O)cc3)NC(=O)CSC[C@@H](C(=O)NCC(N)=O)NC(=O)[C@H](CC(C)C)NC(=O)[C@H](CCCC)N(C)C(=O)[C@H](CCCC)N(C)C(=O)[C@H](Cc3cn(CC(=O)O)c4ccccc34)NC(=O)[C@H](CCN)NC(=O)[C@H](Cc3c[nH]c4ccccc34)NC(=O)[C@@H]3C[C@@H](O)CN3C(=O)[C@H](CC(C)C)NC2=O)cc1` [Example 1139] ({CH2CO}-Y[NMeA]NP[Dap]([CO-X39])L[Hyp]W[Dab][Trp(1-CH2COOH)][NMeNle][NMeNle]LCG-NH2; thioether N-14), the IC50 under setting [1] amounted to 13 nM.
As for `CCCC[C@H]1C(=O)N(C)[C@@H](CCCC)C(=O)N[C@@H](CC(C)C)C(=O)N[C@H](C(=O)NCC(N)=O)CSCC(=O)N[C@@H](Cc2ccc(O)cc2)C(=O)N(C)[C@@H](C)C(=O)N[C@@H](CC(N)=O)C(=O)N2CCC[C@H]2C(=O)N[C@@H](CNC(=O)Nc2cccc(OC)c2)C(=O)N[C@@H](CC(C)C)C(=O)N2C[C@H](O)C[C@H]2C(=O)N[C@@H](Cc2c[nH]c3ccccc23)C(=O)N[C@@H](CCNC(=O)Nc2cccc(OC)c2)C(=O)N[C@@H](Cc2cn(CC(=O)O)c3ccccc23)C(=O)N1C` [Example 1140] ({CH2CO}-Y[NMeA]NP[Dap]([CO-NH(3-MeOPh)])L[Hyp]W[Dab]([CO-NH(3-MeOPh)])[Trp(1-CH2COOH)][NMeNle][NMeNle]LCG-NH2; thioether N-14), under setting [1], the IC50 turned out to be 6 nM.
Consider `CCCC[C@H]1C(=O)N(C)[C@@H](CCCC)C(=O)N[C@@H](CC(C)C)C(=O)N[C@H](C(=O)NCC(N)=O)CSCC(=O)N[C@@H](Cc2ccc(O)cc2)C(=O)N(C)[C@@H](C)C(=O)N[C@@H](CC(N)=O)C(=O)N2CCC[C@H]2C(=O)N[C@@H](CNC(=O)c2cn3c(n2)sc2ccccc23)C(=O)N[C@@H](CC(C)C)C(=O)N2C[C@H](O)C[C@H]2C(=O)N[C@@H](Cc2c[nH]c3ccccc23)C(=O)N[C@@H](CCNC(=O)c2cn3c(n2)sc2ccccc23)C(=O)N[C@@H](Cc2cn(CC(=O)OC)c3ccccc23)C(=O)N1C` [Example 2001] ({CH2CO}-Y[NMeA]NP[Dap](X47)L[Hyp]W[Dab](X47)[Trp(1-CH2CO2Me)][NMeNle][NMeNle]LCG-NH2; thioether N-14), for which, under setting [1], the IC50 was 184 nM.
Consider `CCCC[C@H]1C(=O)N(C)[C@@H](CCCC)C(=O)N[C@@H](CC(C)C)C(=O)N[C@H](C(=O)NCC(N)=O)CSCC(=O)N[C@@H](Cc2ccc(O)cc2)C(=O)N(C)[C@@H](C)C(=O)N[C@@H](CC(N)=O)C(=O)N2CCC[C@H]2C(=O)N[C@@H](CNC(=O)c2c3ccccc3nc3ccccc23)C(=O)N[C@@H](CC(C)C)C(=O)N2C[C@H](O)C[C@H]2C(=O)N[C@@H](Cc2c[nH]c3ccccc23)C(=O)N[C@@H](CCNC(=O)c2c3ccccc3nc3ccccc23)C(=O)N[C@@H](Cc2cn(CC(=O)OC)c3ccccc23)C(=O)N1C` [Example 2003] ({CH2CO}-Y[NMeA]NP[Dap](Acridine9carbonyl)L[Hyp]W[Dab](Acridine9carbonyl)[Trp(1-CH2CO2Me)][NMeNle][NMeNle]LCG-NH2; thioether N-14), for which the half-maximal inhibitory concentration (IC50) under setting [1] was determined as 22.6 nM.
In the case of `CCCC[C@H]1C(=O)N(C)[C@@H](CCCC)C(=O)N[C@@H](CC(C)C)C(=O)N[C@H](C(=O)NCC(N)=O)CSCC(=O)N[C@@H](Cc2ccc(O)cc2)C(=O)N(C)[C@@H](C)C(=O)N[C@@H](CC(N)=O)C(=O)N2CCC[C@H]2C(=O)N[C@@H](CNC(=O)c2c3ccccc3cc3ccccc23)C(=O)N[C@@H](CC(C)C)C(=O)N2C[C@H](O)C[C@H]2C(=O)N[C@@H](Cc2c[nH]c3ccccc23)C(=O)N[C@@H](CCNC(=O)c2c3ccccc3cc3ccccc23)C(=O)N[C@@H](Cc2cn(CC(=O)OC)c3ccccc23)C(=O)N1C` [Example 2006] ({CH2CO}-Y[NMeA]NP[Dap](X34)L[Hyp]W[Dab](X34)[Trp(1-CH2CO2Me)][NMeNle][NMeNle]LCG-NH2; thioether N-14), the IC50 under setting [1] came out at 1590 nM.
With `CCCC[C@H]1C(=O)N(C)[C@@H](CCCC)C(=O)N[C@@H](CC(C)C)C(=O)N[C@H](C(=O)NCC(N)=O)CSCC(=O)N[C@@H](Cc2ccc(O)cc2)C(=O)N(C)[C@@H](C)C(=O)N[C@@H](CC(N)=O)C(=O)N2CCC[C@H]2C(=O)N[C@@H](CNC(=S)Nc2ccc3c(c2)Cc2ccccc2-3)C(=O)N[C@@H](CC(C)C)C(=O)N2C[C@H](O)C[C@H]2C(=O)N[C@@H](Cc2c[nH]c3ccccc23)C(=O)N[C@@H](CCNC(=S)Nc2ccc3c(c2)Cc2ccccc2-3)C(=O)N[C@@H](Cc2cn(CC(=O)O)c3ccccc23)C(=O)N1C` [Example 2007] ({CH2CO}-Y[NMeA]NP[Dap](X1)L[Hyp]W[Dab](X1)[Trp(1-CH2COOH)][NMeNle][NMeNle]LCG-NH2; thioether N-14), the IC50 under setting [1] came to 13.3 nM.
`CCCC[C@H]1C(=O)N(C)[C@@H](CCCC)C(=O)N[C@@H](CC(C)C)C(=O)N[C@H](C(=O)NCC(N)=O)CSCC(=O)N[C@@H](Cc2ccc(O)cc2)C(=O)N(C)[C@@H](C)C(=O)N[C@@H](CC(N)=O)C(=O)N2CCC[C@H]2C(=O)N[C@@H](CNC(=O)Nc2ccc3c(c2)Cc2ccccc2-3)C(=O)N[C@@H](CC(C)C)C(=O)N2C[C@H](O)C[C@H]2C(=O)N[C@@H](Cc2c[nH]c3ccccc23)C(=O)N[C@@H](CCNC(=O)Nc2ccc3c(c2)Cc2ccccc2-3)C(=O)N[C@@H](Cc2cn(CC(=O)O)c3ccccc23)C(=O)N1C` [Example 2008] ({CH2CO}-Y[NMeA]NP[Dap]([CO-X32])L[Hyp]W[Dab]([CO-X32])[Trp(1-CH2COOH)][NMeNle][NMeNle]LCG-NH2; thioether N-14) returned an IC50 of 46.7 nM.
`CCCC[C@H]1C(=O)N(C)[C@@H](CCCC)C(=O)N[C@@H](CC(C)C)C(=O)N[C@H](C(=O)NCC(N)=O)CSCC(=O)N[C@@H](Cc2ccc(O)cc2)C(=O)N(C)[C@@H](C)C(=O)N[C@@H](CC(N)=O)C(=O)N2CCC[C@H]2C(=O)N[C@@H](CNC(=O)Nc2ccc3c(c2)Cc2ccccc2-3)C(=O)N[C@@H](CC(C)C)C(=O)N2C[C@H](O)C[C@H]2C(=O)N[C@@H](Cc2c[nH]c3ccccc23)C(=O)N[C@@H](CCN)C(=O)N[C@@H](Cc2cn(CC(=O)O)c3ccccc23)C(=O)N1C` [Example 2009] ({CH2CO}-Y[NMeA]NP[Dap]([CO-X32])L[Hyp]W[Dab][Trp(1-CH2COOH)][NMeNle][NMeNle]LCG-NH2; thioether N-14) had an IC50 of 3.6 nM.
`CCCC[C@H]1C(=O)N(C)[C@@H](CCCC)C(=O)N[C@@H](CC(C)C)C(=O)N[C@H](C(=O)NCC(N)=O)CSCC(=O)N[C@@H](Cc2ccc(O)cc2)C(=O)N(C)[C@@H](C)C(=O)N[C@@H](CC(N)=O)C(=O)N2CCC[C@H]2C(=O)N[C@@H](CNC(=S)Nc2ccc3c(c2)Cc2ccccc2-3)C(=O)N[C@@H](CC(C)C)C(=O)N2C[C@H](O)C[C@H]2C(=O)N[C@@H](Cc2c[nH]c3ccccc23)C(=O)N[C@@H](CCN)C(=O)N[C@@H](Cc2cn(CC(=O)O)c3ccccc23)C(=O)N1C` [Example 2010] ({CH2CO}-Y[NMeA]NP[Dap](X1)L[Hyp]W[Dab][Trp(1-CH2COOH)][NMeNle][NMeNle]LCG-NH2; thioether N-14): the IC50 under setting [1] came to 3.7 nM.
